Literature values as cited in patent publication US20100192311A1, “METHOD FOR PERFUMING FABRICS” (priority 2009, published 2010).
Where a name gives a salt, the structure may show the parent alone.

Key:
[1] = in water
[2] = test system: typical Gram negative and positive bacteria, fungi and yeasts; conditions: level from about 0.001% to about 0.5% by weight of the usage composition

| Structure (SMILES) | water solubility [1] | effective against typical Gram negative and positive bacteria, fungi and yeasts [2] |
| --- | --- | --- |
| OCCOc1ccccc1 [2-phenoxyethanol] | about 2.67% |  |
| O=[N+]([O-])C1(Br)COCOC1 [Bronidox L, 5-bromo-5-nitro-1,3-dioxane] | about 0.46% |  |
| CC1(C)C(=O)N(CO)C(=O)N1CO [DMDM hydantoin, 1,3-bis(hydroxymethyl)-5,5-dimethyl-2,4-imidazolidinedione] | more than 50% |  |
| OCCc1ccccc1 [Phenyl Ethyl Alcohol, 2-phenylethanol] | about 2% |  |
| Cn1sc2c(c1=O)CCC2 [Promexal, 2-methyl-4,5-trimethylene-4-isothiazolin-3-one] |  | effective |
| O=c1[nH]sc2ccccc12 [Proxel, 1,2-benzisothiazolin-3-one] |  | effective |
| OCc1ccccc1 [benzyl alcohol] | about 4% |  |
| [Na+].[O-][n+]1ccccc1[S-] [sodium pyrithione] | about 50% |  |

Now from value to compound, other results behind:

| water solubility [1] | Structure (SMILES) | effective against typical Gram negative and positive bacteria, fungi and yeasts [2] |
| --- | --- | --- |
| about 1.8% | [H]/N=C(\N/C(=N/[H])NCCCCCCNC(=N)NC(=N)Nc1ccc(Cl)cc1)Nc1ccc(Cl)cc1 [chlorhexidine diacetate salt, 1,1′-hexamethylene bis(5-(p-chlorophenyl)biguanide), reference compound] |  |
| about 70% | [H]/N=C(\N/C(=N/[H])NCCCCCCNC(=N)NC(=N)Nc1ccc(Cl)cc1)Nc1ccc(Cl)cc1 [chlorhexidine digluconate salt, 1,1′-hexamethylene bis(5-(p-chlorophenyl)biguanide), reference compound] |  |
| about 0.8% | CC(C)(O)C(Cl)(Cl)Cl [chlorobutanol, 1,1,1-Trichloro-2-methylpropan-2-ol] |  |
